# Results as given in publication PMC8546421, “Molecular modelling of the FOXO4-TP53 interaction to design senolytic peptides for the elimination of senescent cancer cells” (EBioMedicine, 2021).
# “Also recorded” adds a separate entry of the source. Where no end group is shown, it is not given here.
# Experiments:
# FOXO4-TP53 interaction = assay: Co-immunoprecipitation of Myc-FOXO4 for p53; format: cell-based, human; conditions: senescent HCT116-Myc-FOXO4 cells, 8 µM ES2, 1 hour
# Description: HCT116 cells were transduced with FOXO4 (NM_005938) human tagged ORF Lentiviral Particles (Origene, Cat# RC213185L1V) at 10^6 TU/mL. Cells were then cultured for seven passages. HCT116-Myc-FOXO4 were made senescent using 200 nM Doxorubicin at the final cell concentration of 24 million cells. Dividing cells were plated at concentration of 80 million cells. The following day, cells were treated with 8 µM ES2 for 0 or 1 hour. Nuclear protein was then isolated using NE-PER™ Nuclear and Cytoplasmic Extraction Reagents kit (Cat# 78833) then quantified via Pierce^TM BCA Protein Assay Kit (Cat# 23225) according to manufacturer's instructions. 400 µg of each nuclear lysate and 10 µL of provided positive control was used in the Thermo Scientific™ Pierce™ c-Myc-Tag IP/Co-IP Kit (Cat# 23620). The eluted protein (20 µL) was then loaded onto Bolt™ 4 to 12%, Bis-Tris, 1.0 mm, Mini Protein Gel, 10-well (Cat# NW04120BOX) and run at 120V for 60 minutes in 1X Invitrogen™ Bolt™ MOPS SDS Running Buffer using the Mini Gel Tank (Cat. A25977). Protein was then transferred onto 0.4 µm PVDF according to manufacturer protocol. The membrane was then blocked in 5% non-fat milk in 1x TBS-T (Cat# 03-500-537) for 60 minutes. […]
# dividing A375 cells = assay: Orthotopic xenograft of dividing luciferase A375 cells, radiance; format: in vivo, mouse; conditions: dividing A375 cells injected orthotopically, locally injected twice, imaged one day later; ES2 n=5, saline n=9
# [1] = Systemic delivery to aged mice, blood counts, weight, plasma urea; format: in vivo, mouse
# FOXO4-TP53 foci = assay: Proximity Ligation Assay; format: cell-based, human; conditions: 8 µM ES2, 1 hour
# Description: Senescent and dividing A375 cells were plated in 96-well plates (Cellvis P96-1.5P) at concentration of 20,000 cells per well. The following day, the cells were treated with 8 µM ES2 for 0, 1, and 4 hours. The plate was then fixed with 4% paraformaldehyde for 10 minutes at room temperature. Cells were washed with PBS twice then permeabilized with 0.1% Triton™ X-100 in PBS for 15 minutes. The duolink® In Situ Red Starter Kit Mouse/Rabbit was then used according to manufacturer's protocol with exception of 1:10 dilution of PLUS and MINUS PLA probes. Primary antibodies used were FOXO4 (Cell Signaling Technology Cat# 9472, RRID:AB_10831833, diluted 1:1000), TP53BP1 (BD Biosciences Cat# 612523, RRID:AB_399824, diluted 1:2000), and TP53 (Santa Cruz Cat# sc-126, RRID:AB_628082, diluted 1:500). Z-stacks with 0.34 um steps were captured on a Zeiss Axio Observer Z.1 inverted microscope using a Plan-Apochromat 40 × 0.95 NA lens. The system is setup for widefield fluorescence imaging using a Colibri 7 LED source and a Hamamatsu Orca-flash 4.0 LT black and white camera. The widefield z-stacks were flattened into maximum intensity projections as a pre-processing step before the analysis. Fluorescent foci were counted using the Zeiss Zen software Analysis feature. Briefly, the DAPI staining was used to define the nuclear regions. […] The total number of foci per nucleus was recorded.
# DLD1 and SW480 cells = assay: ES2 viability (MTS) in TP53 mutant colorectal cancer cell lines; format: cell-based, human; conditions: DLD1 (S241F heterozygous), SW480 (R273H, P309S)
# Description: Cell lines were treated with chemotherapy, doxorubicin (Sigma, Cat. No. 2252) to induce senescence (200 nM for HCT116, 100 nM for B16-F10 and MCF7, 50 nM for SW480 and DLD-1, 40 nM for A375-Luc/iRFP and MCF10a). MCF7 cells were treated with CDK4/6 inhibitor, palbociclib (Selleck Chemicals: S1116) to induce senescence (5 µM). A375 cells were treated with Braf inhibitor, Dabrafenib (Selleck Chemicals: S2807), to induce senescence (10 µM). Peptide efficacy experiments were performed by seeding 10,000 – 20,000 cells in a 96-well plate. The cells were given doxorubicin twice to make the cells senescent. After removal of doxorubicin, the plate was treated with varying concentrations of peptide. The peptide was replenished daily for two days. Cellular proliferation was quantified using the Promega CellTiter 96™ AQueous One Solution Cell Proliferation Assay (MTS) after 2 hours according to the manufacturer's protocol (Promega, G3581). To control for the charge of ES2, ProteoJuice (Millipore Sigma, 71281) was used to deliver ES2 using the manufacturers protocol, except 50 µL of 2 mM ES2 was mixed with 25 µL of ProteoJuice. Varying concentrations of the mixture were administered to A375 cells along with a control of only ProteoJuice.
# [2] = aged mice (82 weeks), 3 mg ES2 via tail vein weekly for three weeks, n=5
sequence,measurement,setting,value
PRKGGRRRRAWGRRRRRRRRRRRRRRAPRKRLTLA [ES2],TP53 band co-immunoprecipitated with Myc-FOXO4,FOXO4-TP53 interaction,a band at 53kDa that is eliminated after treating with ES2
same,elimination of dividing cancer cells in vivo (radiance),dividing A375 cells,no difference in gain of radiance; also recorded: ineffective at eliminating dividing cancer cells
same,change in weight of the mice,[1]; [2],no significant change
same,"changes in numbers of white blood cells, platelets, or red blood cells",[1]; [2],non-significant changes
same,toxicity after multiple doses,"[1]; aged mice, 3 weekly i.v. doses",minimal toxicity
same,plasma urea levels,"[1]; aged mice, endpoint, n=5","while not significant, were reduced"
same,effect on FOXO4-TP53 foci in dividing cells,FOXO4-TP53 foci; dividing A375 cells,no effect on FOXO4-TP53 foci in dividing cells
same,reduction of FOXO4-TP53 foci in senescent cells,FOXO4-TP53 foci; senescent A375 cells,2 fold
same,cell death in senescent TP53 mutant cells,DLD1 and SW480 cells,effective at inducing cell death in senescent cells
